Laboratory results as given in PubChem BioAssay (NCI).
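In this assay, cells in 96-well plates receive the compound at five concentrations for 48 hours. Endpoints are linearly interpolated between the surrounding concentrations. TGI marks complete inhibition of growth.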

Key:
Assay in all cases: NCI tumour cell line growth inhibition, 48 h
[1] = system: 786-0 renal
[2] = system: A498 renal
[3] = system: A549 NSCLC
[4] = system: ACHN renal
[5] = system: BT-549 breast
[6] = system: CCRF-CEM leukemia
[7] = system: COLO 205 colon
[8] = system: DU-145 prostate
[9] = system: EKVX NSCLC
[10] = system: HCC-2998 colon
[11] = system: HCT-116 colon
[12] = system: HCT-15 colon
[13] = system: HL-60(TB) leukemia
[14] = system: HOP-62 NSCLC
[15] = system: HOP-92 NSCLC
[16] = system: HS 578T breast
[17] = system: HT29 colon
[18] = system: IGROV1 ovarian
[19] = system: K-562 leukemia
[20] = system: KM12 colon
[21] = system: M14 melanoma
[22] = system: MALME-3M melanoma
[23] = system: MDA-MB-231 breast
[24] = system: MDA-MB-435
[25] = system: MDA-N
[26] = system: MOLT-4 leukemia
[27] = system: NCI-H226 lung
[28] = system: NCI-H23 lung
[29] = system: NCI-H460 lung
[30] = system: NCI-H522 lung
[31] = system: NCI/ADR-RES ovarian
[32] = system: OVCAR-3 ovarian
[33] = system: OVCAR-4 ovarian
[34] = system: OVCAR-5 ovarian
[35] = system: OVCAR-8 ovarian
[36] = system: PC-3 prostate
[37] = system: RPMI-8226 leukemia
[38] = system: RXF 393 renal
[39] = system: SF-268 CNS
[40] = system: SF-295 CNS
[41] = system: SF-539 CNS
[42] = system: SK-MEL-2 melanoma
[43] = system: SK-MEL-28 melanoma
[44] = system: SK-MEL-5 melanoma
[45] = system: SK-OV-3 ovarian
[46] = system: SN12C renal
[47] = system: SNB-19 CNS
[48] = system: SW-620 colon
[49] = system: T-47D breast
[50] = system: TK-10 renal
[51] = system: U251 CNS
[52] = system: UACC-257 melanoma
[53] = system: UACC-62 melanoma
[54] = system: UO-31 renal

SMILES: CC(C)(Cl)C(Br)CCC(C)(Br)C(Br)CBr (centres undefined)
- TGI [1]: 31.2 µM
- TGI [2]: 34.8 µM
- TGI [3]: 92.2 µM
- TGI [4]: 31.9 µM
- TGI [5]: 42.8 µM
- TGI [6]: 28.7 µM
- TGI [7]: 31 µM
- TGI [8]: 39.2 µM
- TGI [9]: 70.3 µM
- TGI [10]: 25.8 µM
- TGI [11]: 29.5 µM
- TGI [12]: 42.6 µM
- TGI [13]: 36.5 µM
- TGI [14]: 32.5 µM
- TGI [15]: 48.6 µM
- TGI [16]: 46.5 µM
- TGI [17]: 29.2 µM
- TGI [18]: 39.9 µM
- TGI [19]: > 100 µM
- TGI [20]: 36 µM
- TGI [21]: 33.7 µM
- TGI [22]: 31.8 µM
- TGI [23]: 25.9 µM
- TGI [24]: 35.3 µM
- TGI [25]: 43.1 µM
- TGI [26]: 53.4 µM
- TGI [27]: 39.3 µM
- TGI [28]: 38.6 µM
- TGI [29]: 31.1 µM
- TGI [30]: 26.5 µM
- TGI [31]: 31.6 µM
- TGI [32]: 29.9 µM
- TGI [33]: 37.5 µM
- TGI [34]: 31.2 µM
- TGI [35]: 29.7 µM
- TGI [36]: 64.7 µM
- TGI [37]: 40.1 µM
- TGI [38]: 38 µM
- TGI [39]: 32.6 µM
- TGI [40]: 32.8 µM
- TGI [41]: 29 µM
- TGI [42]: 30.3 µM
- TGI [43]: 33.6 µM
- TGI [44]: 28 µM
- TGI [45]: > 100 µM
- TGI [46]: 35.8 µM
- TGI [47]: 54.6 µM
- TGI [48]: 31.4 µM
- TGI [49]: 46.4 µM
- TGI [50]: 62.2 µM
- TGI [51]: 30.1 µM
- TGI [52]: 37.5 µM
- TGI [53]: 48.3 µM
- TGI [54]: 36.1 µM
